Reference: the supplement of paper PMC4977894
Structures can show the parent of a compound that is named as a salt. ± gives the standard deviation of the averaged measurements.

Experiments:
[1] = tested on: Homo sapiens (human subject panel, olfactory perception); test: perceived odor intensity rating (rating 0-100); higher = stronger perceived smell
Method in brief: (§1)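 Fifty-five healthy human subjects aged 18–50 took part, and the six lowest performers were excluded. Each molecule was diluted in paraffin oil at high and low concentrations, and 1 mL was sniffed in randomized order over ten visits of 100 stimuli each. Subjects who reported smelling a stimulus rated it on a computerized slider that started at 50 and had to be moved, with positions converted to a 0–100 scale. The familiarity, intensity and pleasantness values are averages across subjects.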

[2] = tested on: Homo sapiens (human subject panel, olfactory perception); test: perceived odor pleasantness rating (rating 0-100); higher = more pleasant
Method in brief: as §1

[3] = tested on: Homo sapiens (human subject panel, olfactory perception); test: perceived odor familiarity rating (rating 0-100); higher = more familiar
Method in brief: as §1

[4] = odor dilution in paraffin oil: 1/1,000
[5] = odor dilution in paraffin oil: 1/100,000
[6] = odor dilution in paraffin oil: 1/10
[7] = odor dilution in paraffin oil: 1/10,000,000

OCC1CCCO1 (stereo not drawn) [Tetrahydrofurfuryl alcohol]
perceived odor intensity rating [1, 4]: 29.6 ± 27 | perceived odor intensity rating [1, 5]: 18.4 ± 23 | perceived odor pleasantness rating [2, 4]: 42.7 ± 25 | perceived odor pleasantness rating [2, 5]: 45.1 ± 22 | perceived odor familiarity rating [3, 4]: 30.3 ± 29 | perceived odor familiarity rating [3, 5]: 40.3 ± 28

Cc1ncc(C[n+]2csc(CCO)c2C)c(N)n1 [Thiamine hydrochloride]
perceived odor intensity rating [1, 6]: 67.1 ± 23 | perceived odor intensity rating [1, 4]: 61.6 ± 25 | perceived odor pleasantness rating [2, 6]: 35.5 ± 25 | perceived odor pleasantness rating [2, 4]: 36.4 ± 22 | perceived odor familiarity rating [3, 6]: 51.5 ± 29 | perceived odor familiarity rating [3, 4]: 44.7 ± 28

c1cscn1 [Thiazole]
perceived odor intensity rating [1, 4]: 25.1 ± 27 | perceived odor intensity rating [1, 5]: 18.8 ± 22 | perceived odor pleasantness rating [2, 4]: 43.2 ± 24 | perceived odor pleasantness rating [2, 5]: 45.5 ± 21 | perceived odor familiarity rating [3, 4]: 41.3 ± 29 | perceived odor familiarity rating [3, 5]: 27.2 ± 25

c1ccsc1 [Thiophene (replicate)]
perceived odor intensity rating [1, 4]: 66.4 ± 25 | perceived odor intensity rating [1, 5]: 27.6 ± 31 | perceived odor pleasantness rating [2, 4]: 33.7 ± 27 | perceived odor pleasantness rating [2, 5]: 36 ± 22 | perceived odor familiarity rating [3, 4]: 53.9 ± 31 | perceived odor familiarity rating [3, 5]: 42.1 ± 26

c1ccsc1 [Thiophene]
perceived odor intensity rating [1, 4]: 32.8 ± 34 | perceived odor intensity rating [1, 5]: 39.5 ± 30 | perceived odor pleasantness rating [2, 4]: 28.7 ± 20 | perceived odor pleasantness rating [2, 5]: 40.8 ± 24 | perceived odor familiarity rating [3, 4]: 39.3 ± 29 | perceived odor familiarity rating [3, 5]: 43.1 ± 30

CC(=O)OCC(COC(C)=O)OC(C)=O [Triacetin]
perceived odor intensity rating [1, 6]: 57.8 ± 29 | perceived odor intensity rating [1, 4]: 45.1 ± 30 | perceived odor pleasantness rating [2, 6]: 33.1 ± 25 | perceived odor pleasantness rating [2, 4]: 38.9 ± 24 | perceived odor familiarity rating [3, 6]: 54.5 ± 35 | perceived odor familiarity rating [3, 4]: 39.2 ± 35

CCCCOC(=O)CC(CC(=O)OCCCC)(OC(C)=O)C(=O)OCCCC [Tributyl-2-Acetylcitrate]
perceived odor intensity rating [1, 6]: 41.4 ± 30 | perceived odor intensity rating [1, 4]: 6.93 ± 11 | perceived odor pleasantness rating [2, 6]: 43.2 ± 22 | perceived odor pleasantness rating [2, 4]: 51.5 ± 23 | perceived odor familiarity rating [3, 6]: 35.9 ± 28 | perceived odor familiarity rating [3, 4]: 37.7 ± 28

CCCC(=O)OCC(COC(=O)CCC)OC(=O)CCC [Tributyrin]
perceived odor intensity rating [1, 4]: 68.8 ± 28 | perceived odor intensity rating [1, 5]: 31.9 ± 29 | perceived odor pleasantness rating [2, 4]: 22.2 ± 22 | perceived odor pleasantness rating [2, 5]: 39.5 ± 23 | perceived odor familiarity rating [3, 4]: 49.9 ± 30 | perceived odor familiarity rating [3, 5]: 36.9 ± 30

CCOC(=O)CC(O)(CC(=O)OCC)C(=O)OCC [Triethyl citrate]
perceived odor intensity rating [1, 6]: 31.3 ± 30 | perceived odor intensity rating [1, 4]: 20.4 ± 24 | perceived odor pleasantness rating [2, 6]: 41.1 ± 19 | perceived odor pleasantness rating [2, 4]: 46.2 ± 24 | perceived odor familiarity rating [3, 6]: 41.4 ± 29 | perceived odor familiarity rating [3, 4]: 26.4 ± 22

NCCc1ccc(O)cc1 [Tyramine]
perceived odor intensity rating [1, 6]: 53.2 ± 33 | perceived odor intensity rating [1, 4]: 20.4 ± 25 | perceived odor pleasantness rating [2, 6]: 34.7 ± 28 | perceived odor pleasantness rating [2, 4]: 58 ± 26 | perceived odor familiarity rating [3, 6]: 51 ± 31 | perceived odor familiarity rating [3, 4]: 35.4 ± 34

CCCCCCCCCCC(=O)O [Undecanoic acid]
perceived odor intensity rating [1, 6]: 81.8 ± 19 | perceived odor intensity rating [1, 4]: 57.4 ± 33 | perceived odor pleasantness rating [2, 6]: 22.9 ± 21 | perceived odor pleasantness rating [2, 4]: 31.1 ± 24 | perceived odor familiarity rating [3, 6]: 45.9 ± 32 | perceived odor familiarity rating [3, 4]: 41.9 ± 34

COc1cc(C=O)ccc1OC(C)=O [Vanillin Acetate]
perceived odor intensity rating [1, 6]: 64.3 ± 26 | perceived odor intensity rating [1, 4]: 54.6 ± 27 | perceived odor pleasantness rating [2, 6]: 74.3 ± 22 | perceived odor pleasantness rating [2, 4]: 72.5 ± 22 | perceived odor familiarity rating [3, 6]: 69.6 ± 28 | perceived odor familiarity rating [3, 4]: 65.3 ± 28

COc1ccc(C=O)cc1OC [Veratraldehyde]
perceived odor intensity rating [1, 6]: 74.1 ± 23 | perceived odor intensity rating [1, 4]: 35.2 ± 29 | perceived odor pleasantness rating [2, 6]: 75.3 ± 22 | perceived odor pleasantness rating [2, 4]: 62.4 ± 22 | perceived odor familiarity rating [3, 6]: 75.1 ± 26 | perceived odor familiarity rating [3, 4]: 53 ± 28

CCCCC1OC(=O)CC1C (stereo not drawn) [Whiskey lactone]
perceived odor intensity rating [1, 4]: 71.3 ± 23 | perceived odor intensity rating [1, 5]: 51.8 ± 29 | perceived odor pleasantness rating [2, 4]: 69.7 ± 22 | perceived odor pleasantness rating [2, 5]: 60.2 ± 27 | perceived odor familiarity rating [3, 4]: 62.2 ± 30 | perceived odor familiarity rating [3, 5]: 50.6 ± 33

CC=O [acetaldehyde]
perceived odor intensity rating [1, 4]: 40.5 ± 31 | perceived odor intensity rating [1, 5]: 21.8 ± 26 | perceived odor pleasantness rating [2, 4]: 45 ± 22 | perceived odor pleasantness rating [2, 5]: 54 ± 24 | perceived odor familiarity rating [3, 4]: 37.4 ± 29 | perceived odor familiarity rating [3, 5]: 41.4 ± 31

CC(=O)O [acetic acid]
perceived odor intensity rating [1, 5]: 21.2 ± 25 | perceived odor intensity rating [1, 7]: 11.8 ± 16 | perceived odor pleasantness rating [2, 5]: 47.8 ± 24 | perceived odor pleasantness rating [2, 7]: 46.1 ± 18 | perceived odor familiarity rating [3, 5]: 42 ± 32 | perceived odor familiarity rating [3, 7]: 35.5 ± 32

CC(C)=O [acetone]
perceived odor intensity rating [1, 6]: 37 ± 32 | perceived odor intensity rating [1, 4]: 30 ± 29 | perceived odor pleasantness rating [2, 6]: 56.6 ± 25 | perceived odor pleasantness rating [2, 4]: 51.2 ± 24 | perceived odor familiarity rating [3, 6]: 40.6 ± 28 | perceived odor familiarity rating [3, 4]: 38.8 ± 31

CC(=O)c1ccccc1 [acetophenone]
perceived odor intensity rating [1, 4]: 81.5 ± 17 | perceived odor intensity rating [1, 5]: 45.1 ± 29 | perceived odor pleasantness rating [2, 4]: 52.8 ± 30 | perceived odor pleasantness rating [2, 5]: 52.7 ± 26 | perceived odor familiarity rating [3, 4]: 61.3 ± 31 | perceived odor familiarity rating [3, 5]: 42.6 ± 30
